US9957268B2, “1H-pyrrolo[2,3,c]pyridin-7(6H)-ones and pyrazolo[3,4-c]pyridin-7(6H)-ones as inhibitors of BET proteins” (Incyte Corporation, priority 2014, dated 2018)
pIC50: −log10 of the molar value.

Tests used:
[1] = molecular target: BRD4-BD1 (Homo sapiens (Human), UniProt O60885); experiment: BRD4 AlphaScreen assay (BRD4-BD1); assay type: binding; details: biotin-labeled tetra-acetylated histone H4 peptide
Description: (§1) BRD4-BD1 and BRD4-BD2 assays were conducted in white 384-well polystyrene plate in a final volume of 40 μL for BD1 and 60 μL for BD2. Inhibitors were first serially diluted in DMSO and added to the plate wells before the addition of other reaction components. The final concentration of DMSO in the assay was 1.25% (BD1) and 0.83% (BD2). The assays were carried out at room temperature in the assay buffer (50 mM Tris-HCl, pH 7.5, 0.01% Tween-20, 0.01% BSA, 5 mM DTT), containing 50 nM Biotin-labeled tetra-acetylated histone H4 peptide (H4Ac4) and BRD4-BD1 or BRD4-BD2 protein at concentration less than 1 nM. The incubation for 75 min. was followed by the addition of 20 μL of assay buffer supplemented with Streptavidin donor beads (PerkinElmer 6760002) and GSH Acceptor beads (PerkinElmer-AL109C) at final concentration 2-4 μg/mL under reduced light. After plate sealing, the plate was incubated in the dark at room temperature for 75 min. before reading on a PHERAstar FS plate reader (BMG Labtech). IC50 determination was performed by fitting the curve of percent control activity versus the log of the inhibitor concentration using the GraphPad Prism 5.0 software.

[2] = molecular target: BRD4-BD2 (Homo sapiens (Human), UniProt O60885); experiment: BRD4 AlphaScreen assay (BRD4-BD2); assay type: binding; details: biotin-labeled tetra-acetylated histone H4 peptide
Description: as §1

pIC50 [1]	pIC50 [2]	SMILES
≥ 7.00	≥ 7.00	CC(C)C1Oc2c(-c3cn(C)c(=O)c4[nH]ccc34)cc(S(C)(=O)=O)cc2N(C)C1=O (single isomer, unassigned) [Example 47A, 2-isopropyl-4-methyl-8-(6-methyl-7-oxo-6,7-dihydro-1H-pyrrolo[2,3-c]pyridin-4-yl)-6-(methylsulfonyl)-2H-1,4-benzoxazin-3(4H)-one]
≥ 7.00	≥ 7.00	CC(C)C1Oc2c(-c3cn(C)c(=O)c4[nH]ccc34)cc(S(C)(=O)=O)cc2N(C)C1=O (single isomer, unassigned) [Example 47B, 2-isopropyl-4-methyl-8-(6-methyl-7-oxo-6,7-dihydro-1H-pyrrolo[2,3-c]pyridin-4-yl)-6-(methylsulfonyl)-2H-1,4-benzoxazin-3(4H)-one]
≥ 7.00	≥ 7.00	CC(O)c1cc(-c2cn(C)c(=O)c3[nH]ccc23)c2c(c1)N(C)C(=O)C(C)(C)O2 (single isomer, unassigned) [Example 83A, 6-(1-hydroxyethyl)-2,2,4-trimethyl-8-(6-methyl-7-oxo-6,7-dihydro-1H-pyrrolo[2,3-c]pyridin-4-yl)-2H-1,4-benzoxazin-3(4H)-one]
≥ 7.00	≥ 7.00	CC(O)c1cc(-c2cn(C)c(=O)c3[nH]ccc23)c2c(c1)N(C)C(=O)C(C)(C)O2 (single isomer, unassigned) [Example 83B, 6-(1-hydroxyethyl)-2,2,4-trimethyl-8-(6-methyl-7-oxo-6,7-dihydro-1H-pyrrolo[2,3-c]pyridin-4-yl)-2H-1,4-benzoxazin-3(4H)-one]
≥ 7.00	≥ 7.00	Cn1cc(-c2cccc3c2OC(c2ccccc2)C(=O)N3)c2cc[nH]c2c1=O (stereo not drawn) [Example 1, 8-(6-methyl-7-oxo-6,7-dihydro-1H-pyrrolo[2,3-c]pyridin-4-yl)-2-phenyl-2H-1,4-benzoxazin-3(4H)-one]
≥ 7.00	≥ 7.00	CC(C)C1Oc2c(cccc2-c2cn(C)c(=O)c3[nH]ccc23)NC1=O (stereo not drawn) [Example 2, 2-isopropyl-8-(6-methyl-7-oxo-6,7-dihydro-1H-pyrrolo[2,3-c]pyridin-4-yl)-2H-1,4-benzoxazin-3(4H)-one]
6.00 to 7.00	≥ 7.00	CC1Oc2c(cccc2-c2cn(C)c(=O)c3[nH]ccc23)NC1=O (stereo not drawn) [Example 3, 2-methyl-8-(6-methyl-7-oxo-6,7-dihydro-1H-pyrrolo[2,3-c]pyridin-4-yl)-2H-1,4-benzoxazin-3(4H)-one]
6.00 to 7.00	≥ 7.00	CCC1Oc2c(cccc2-c2cn(C)c(=O)c3[nH]ccc23)NC1=O (stereo not drawn) [Example 4, 2-ethyl-8-(6-methyl-7-oxo-6,7-dihydro-1H-pyrrolo[2,3-c]pyridin-4-yl)-2H-1,4-benzoxazin-3(4H)-one]
≥ 7.00	≥ 7.00	Cn1cc(-c2cccc3c2OC(C2CC2)C(=O)N3)c2cc[nH]c2c1=O (stereo not drawn) [Example 6, 2-cyclopropyl-8-(6-methyl-7-oxo-6,7-dihydro-1H-pyrrolo[2,3-c]pyridin-4-yl)-2H-1,4-benzoxazin-3(4H)-one]
≥ 7.00	≥ 7.00	Cn1cc(-c2cccc3c2OC(C2CCOCC2)C(=O)N3)c2cc[nH]c2c1=O (stereo not drawn) [Example 7, 8-(6-methyl-7-oxo-6,7-dihydro-1H-pyrrolo[2,3-c]pyridin-4-yl)-2-(tetrahydro-2H-pyran-4-yl)-2H-1,4-benzoxazin-3(4H)-one]
6.00 to 7.00	≥ 7.00	CCC1Oc2c(-c3cn(C)c(=O)c4[nH]ccc34)cccc2N(C)C1=O (stereo not drawn) [Example 8, 2-ethyl-4-methyl-8-(6-methyl-7-oxo-6,7-dihydro-1H-pyrrolo[2,3-c]pyridin-4-yl)-2H-1,4-benzoxazin-3(4H)-one]
≥ 7.00	≥ 7.00	COc1cc(-c2cn(C)c(=O)c3[nH]ccc23)c2c(c1)N(C)C(=O)C(C(C)C)O2 (stereo not drawn) [Example 10, 2-isopropyl-6-methoxy-4-methyl-8-(6-methyl-7-oxo-6,7-dihydro-1H-pyrrolo[2,3-c]pyridin-4-yl)-2H-1,4-benzoxazin-3(4H)-one]
6.00 to 7.00	6.00 to 7.00	COc1cc(-c2cn(C)c(=O)c3[nH]ccc23)c2c(c1)N(CC(=O)O)C(=O)C(C(C)C)O2 (stereo not drawn) [Example 11, [2-isopropyl-6-methoxy-8-(6-methyl-7-oxo-6,7-dihydro-1H-pyrrolo[2,3-c]pyridin-4-yl)-3-oxo-2,3-dihydro-4H-1,4-benzoxazin-4-yl]acetic acid]
6.00 to 7.00	≥ 7.00	CNC(=O)CN1C(=O)C(C(C)C)Oc2c(-c3cn(C)c(=O)c4[nH]ccc34)cc(OC)cc21 (stereo not drawn) [Example 12, 2-[2-isopropyl-6-methoxy-8-(6-methyl-7-oxo-6,7-dihydro-1H-pyrrolo[2,3-c]pyridin-4-yl)-3-oxo-2,3-dihydro-4H-1,4-benzoxazin-4-yl]-N-methylacetamide]
6.00 to 7.00	≥ 7.00	COc1cc(-c2cn(C)c(=O)c3[nH]ccc23)c2c(c1)N(CC(=O)N1CCN(C)CC1)C(=O)C(C(C)C)O2 (stereo not drawn) [Example 14, 2-isopropyl-6-methoxy-8-(6-methyl-7-oxo-6,7-dihydro-1H-pyrrolo[2,3-c]pyridin-4-yl)-4-[2-(4-methylpiperazin-1-yl)-2-oxoethyl]-2H-1,4-benzoxazin-3(4H)-one]
≥ 7.00	≥ 7.00	COc1cc(-c2cn(C)c(=O)c3[nH]ccc23)c2c(c1)N(Cc1ccncc1)C(=O)C(C(C)C)O2 (stereo not drawn) [Example 15, 2-isopropyl-6-methoxy-8-(6-methyl-7-oxo-6,7-dihydro-1H-pyrrolo[2,3-c]pyridin-4-yl)-4-(pyridin-4-ylmethyl)-2H-1,4-benzoxazin-3(4H)-one]
6.00 to 7.00	≥ 7.00	CC(C)C1Oc2c(cc(C#N)cc2-c2cn(C)c(=O)c3[nH]ccc23)NC1=O (stereo not drawn) [Example 17, 2-isopropyl-8-(6-methyl-7-oxo-6,7-dihydro-1H-pyrrolo[2,3-c]pyridin-4-yl)-3-oxo-3,4-dihydro-2H-1,4-benzoxazine-6-carbonitrile]
6.00 to 7.00	≥ 7.00	CC(C)C1Oc2c(-c3cn(C)c(=O)c4[nH]ccc34)cc(C#N)cc2N(C)C1=O (stereo not drawn) [Example 18, 2-isopropyl-4-methyl-8-(6-methyl-7-oxo-6,7-dihydro-1H-pyrrolo[2,3-c]pyridin-4-yl)-3-oxo-3,4-dihydro-2H-1,4-benzoxazine-6-carbonitrile]
6.00 to 7.00	≥ 7.00	CC(C)C1Oc2c(-c3cn(C)c(=O)c4[nH]ccc34)cc(C(N)=O)cc2N(C)C1=O (stereo not drawn) [Example 19, 2-isopropyl-4-methyl-8-(6-methyl-7-oxo-6,7-dihydro-1H-pyrrolo[2,3-c]pyridin-4-yl)-3-oxo-3,4-dihydro-2H-1,4-benzoxazine-6-carboxamide]

SMILES	pIC50 [1]	pIC50 [2]
CC(C)C1Oc2c(cc(S(C)(=O)=O)cc2-c2cn(C)c(=O)c3[nH]ccc23)NC1=O (single isomer, unassigned) [Example 44B, 2-isopropyl-8-(6-methyl-7-oxo-6,7-dihydro-1H-pyrrolo[2,3-c]pyridin-4-yl)-6-(methylsulfonyl)-2H-1,4-benzoxazin-3(4H)-one]	≥ 7.00	≥ 7.00
Cn1cc(-c2cccc3c2OC(c2ccccn2)C(=O)N3)c2cc[nH]c2c1=O (stereo not drawn) [Example 5, 8-(6-methyl-7-oxo-6,7-dihydro-1H-pyrrolo[2,3-c]pyridin-4-yl)-2-pyridin-2-yl-2H-1,4-benzoxazin-3(4H)-one 2,2,2-trifluoroacetate]	6.00 to 7.00	≥ 7.00
